Biological target: BRD4 (Homo sapiens, UniProt O60885)
Assay: Differential Scanning Fluorimetry (DSF), stability of BRD4 upon ligand binding
Conditions: for ΔTm at 4 µM: 100 μM protein, 4 μM compound and 2% DMSO; for IC50: estimated
Experimental: DSF=Differential Scanning Fluorimetry; provides a measure of the increased stability of BRD4 upon ligand binding The DSF experiment was run at 100 μM protein, 4 μM compound and 2% DMSO.

Row | SMILES | ΔTm at 4 µM [°C] | IC50 [nM]
1 | CN1CCN(c2ccc(Nc3ncc(Cl)c(Nc4cccc(C(C)(C)C)c4)n3)cc2)CC1 | 0.12 ± 0.053 | 19800
2 | COc1cc(Nc2ncc(C(F)(F)F)c(Nc3ccc(N4CCN(C)CC4)cc3)n2)ccc1Cl | 0.56 ± 0.37 | 14100
3 | CC(C)NS(=O)(=O)c1cccc(Nc2nc(Nc3ccc(N4CCN(C)CC4)cc3)ncc2Cl)c1 | 4.6 ± 0.12 | 630
4 | CC(C)(C)NS(=O)(=O)c1cccc(Nc2nc(Nc3ccc(N4CCOCC4)cc3)ncc2Cl)c1 | -0.071 ± 0.042 | 22900
5 | CN1CCN(c2ccc(Nc3ncc(Cl)c(Nc4cccc(S(=O)(=O)NC(C)(C)C)c4)n3)cc2)CC1 | 5.7 ± 0.054 | 270
6 | Cc1cnc(Nc2ccc(N3CCN(C)CC3)cc2)nc1Nc1cccc(C(C)(C)C)c1 | 2.9 ± 0.12 | 2330
7 | CC(C)NS(=O)(=O)c1cccc(Nc2nc(N3CCN(c4ccc(N)cc4)CC3)ncc2Br)c1 | 0.16 | 19200
8 | CCc1cnc(Nc2ccc(N3CCN(C)CC3)cc2)nc1Nc1cccc(S(=O)(=O)NC(C)C)c1 | 2.2 | 3990
9 | CC(C)NS(=O)(=O)c1cccc(Nc2nc(Nc3ccc(N4CCOCC4)cc3)ncc2Br)c1 | -0.79 | 39800
10 | COc1ccc(Nc2nc(Nc3ccc(N4CCN(C)CC4)cc3)ncc2Cl)cc1OC | 5.1 ± 0.039 | 430
11 | COc1cccc(Nc2nc(Nc3ccc(N4CCN(C)CC4)cc3)ncc2C)c1 | 3.2 ± 0.083 | 1850
12 | CCOc1cccc(Nc2nc(Nc3ccc(N4CCN(C)CC4)cc3)ncc2C)c1 | 5.4 ± 0.15 | 340
13 | CC(C)Oc1cccc(Nc2nc(Nc3ccc(N4CCN(C)CC4)cc3)ncc2Cl)c1 | 4.8 ± 0.12 | 540
14 | Cc1cnc(Nc2ccc(N3CCN(C)CC3)cc2)nc1Nc1cccc(OC(C)C)c1 | 6.6 ± 0.1 | 140
15 | CCOC(=O)c1cnc(Nc2ccc(N3CCN(C)CC3)cc2)nc1Nc1ccc(Cl)c(OC)c1 | 0.24 ± 0.13 | 18000
16 | CCOC(=O)c1cnc(Nc2ccc(N3CCN(C)CC3)cc2)nc1Nc1cccc(S(=O)(=O)NC(C)(C)C)c1 | -0.0056 ± 0.24 | > 20000
17 | Cc1cnc(Nc2ccc(N3CCN(C)CC3)cc2)nc1Nc1ccc2c(c1)OCCO2 | 4.4 ± 0.11 | 740
18 | Cc1cnc(Nc2ccc(N3CCN(C)CC3)cc2)nc1Nc1ccc2c(c1)OCO2 | 0.79 ± 0.079 | 12000
19 | COc1cc(Nc2nc(Nc3ccc(N4CCN(C)CC4)cc3)ncc2Cl)cc(OC)c1Cl | 2 ± 0.42 | 4700
20 | COc1cc(Nc2cc(C)nc(Nc3ccc(N4CCN(C)CC4)cc3)n2)ccc1Cl | 2.6 ± 0.095 | 2900
21 | COc1cc(Nc2nc(Nc3ccc(N4CCN(C)CC4)cc3)ncc2C)c(OC)cc1Cl | 0.57 ± 0.25 | 14000
22 | COc1cc(Nc2nc(Nc3ccc(N4CCNCC4)cc3)ncc2C)ccc1Cl | 7.1 ± 0.15 | 92
23 | COc1cc(Nc2nc(Nc3ccc(N4CCN(C)CC4)cc3)ncc2Cl)cc(OC)c1 | 3.5 ± 0.17 | 1500
24 | COc1cc(Nc2ccnc(Nc3ccc(N4CCN(C)CC4)cc3)n2)ccc1Cl | 2.5 ± 0.069 | 3200

Row | SMILES | ΔTm at 4 µM [°C] | IC50 [nM]
25 | CCCc1cnc(Nc2ccc(N3CCN(C)CC3)cc2)nc1Nc1ccc(Cl)c(OC)c1 | 3.1 ± 0.075 | 2000
26 | COc1cc(Nc2nc(Nc3ccc(N4CCN(C)CC4)cc3)ncc2C(C)C)ccc1Cl | 1.4 ± 0.11 | 7400
27 | COc1cc(Nc2nc(Nc3ccc(N4CCNCC4)cc3)ncc2Br)ccc1Cl | 4.5 ± 0.1 | 680
28 | CCOc1cc(Nc2nc(Nc3ccc(N4CCN(C)CC4)cc3)ncc2Cl)ccc1Cl | 3.7 ± 0.12 | 1300
29 | CCOc1cc(Nc2nc(Nc3ccc(N4CCN(C)CC4)cc3)ncc2C)ccc1Cl | 6.4 ± 0.0066 | 160
30 | Cc1cnc(Nc2ccc(N3CCN(C)CC3)cc2)nc1Nc1ccc(Cl)c(OC(C)C)c1 | 6.3 ± 0.1 | 170
31 | CN1CCN(c2ccc(Nc3nc(Nc4cccc(S(=O)(=O)NC(C)(C)C)c4)c4ccccc4n3)cc2)CC1 | 2.6 ± 0.081 | 2900
32 | Cc1cnc(Nc2ccc(N3CCN(C)CC3)cc2)nc1Nc1cccc(NS(C)(=O)=O)c1 | 4.6 ± 0.13 | 630
33 | CN1CCN(c2ccc(Nc3nc(Nc4cccc(NS(=O)(=O)C5CC5)c4)c4ccccc4n3)cc2)CC1 | 5.8 ± 0.11 | 260
34 | Cc1cnc(Nc2ccc(N3CCN(C)CC3)cc2)nc1Nc1cccc(NC(=O)C(C)(C)C)c1 | 3.5 ± 0.19 | 1500
35 | Cc1cnc(Nc2ccc(N3CCN(C)CC3)cc2)nc1Nc1cccc(NC(=O)C(C)C)c1 | 4.1 ± 0.12 | 900
36 | Cc1cnc(Nc2ccc(N3CCN(C)CC3)cc2)nc1Nc1cccc(NC(=O)C2CC2)c1 | 4.6 ± 0.21 | 630
37 | Cc1cnc(Nc2ccc(N3CCN(C)CC3)cc2)nc1Nc1cccc(NC(=O)NC(C)C)c1 | 2.1 ± 0.1 | 4300
38 | CC(C)NS(=O)(=O)c1cccc(Nc2nc(Nc3ccc(N4CCN(C)CC4)cc3)nc3ccccc23)c1 | 5 ± 0.13 | 480
39 | CN1CCN(c2ccc(Nc3ncc(C(=O)O)c(Nc4cccc(S(=O)(=O)NC(C)(C)C)c4)n3)cc2)CC1 | -0.2 ± 0.2 | 25000
40 | COc1cc(Nc2nc(Nc3ccc(N4CCN(C)CC4)cc3)ncc2C(=O)O)ccc1Cl | 0.0094 ± 0.11 | 22000
41 | Cc1ccc(Nc2nc(Nc3ccc(N4CCN(C)CC4)cc3)nc3ccccc23)cc1S(=O)(=O)NC(C)(C)C | 6.1 ± 0.032 | 200
42 | Cc1ccc(Nc2nc(Nc3ccc(N4CCN(C)CC4)cc3)ncc2C)cc1S(=O)(=O)NC(C)(C)C | 8.6 ± 0.09 | 30
43 | CN1CCN(c2ccc(Nc3ncc(C(N)=O)c(Nc4cccc(S(=O)(=O)NC(C)(C)C)c4)n3)cc2)CC1 | 2.7 ± 0.0089 | 2700
44 | CN1CCN(c2ccc(Nc3nc4c(c(Nc5cccc(S(=O)(=O)NC(C)(C)C)c5)n3)CCC4)cc2)CC1 | 4.9 ± 0.11 | 500
45 | CC(C)NS(=O)(=O)c1cccc(Nc2nc(Nc3ccc(N4CCN(C)CC4)cc3)nc3c2CCC3)c1 | 3.8 ± 0.056 | 1200
46 | CN1CCN(c2ccc(Nc3nc4c(c(Nc5cccc(S(=O)(=O)NC6CC6)c5)n3)CCC4)cc2)CC1 | 4.9 ± 0.099 | 520
47 | CC(C)NS(=O)(=O)c1cccc(Nc2nc(Nc3ccc(N4CCN(C)CC4)cc3)nc3c2COC3)c1 | 0.6 ± 0.14 | 14000
48 | CC(C)S(=O)(=O)Nc1cccc(Nc2nc(Nc3ccc(N4CCN(C)CC4)cc3)nc3c2COC3)c1 | 3.9 ± 0.24 | 1000

Row | SMILES | ΔTm at 4 µM [°C] | IC50 [nM]
49 | CN1CCN(c2ccc(Nc3nc4c(c(Nc5cccc(NS(=O)(=O)C6CC6)c5)n3)COC4)cc2)CC1 | 1.3 ± 0.12 | 7900
50 | CN1CCN(c2ccc(Nc3nc4c(c(Nc5cccc(NS(=O)(=O)C(C)(C)C)c5)n3)COC4)cc2)CC1 | 6 ± 0.13 | 220
51 | CN1CCN(c2ccc(Nc3nc4c(c(Nc5cccc(NS(=O)(=O)C(C)(C)C)c5)n3)CCC4)cc2)CC1 | 6.4 ± 0.12 | 150
52 | CC(C)S(=O)(=O)Nc1cccc(Nc2nc(Nc3ccc(N4CCN(C)CC4)cc3)nc3c2CCC3)c1 | 4.3 ± 0.14 | 770
53 | CN1CCN(c2ccc(Nc3ncc(C(N)=O)c(Nc4cccc(NS(=O)(=O)C5CC5)c4)n3)cc2)CC1 | 2.3 ± 0.073 | 3800
54 | Cc1cnc(Nc2ccc(N3CCN(C)CC3)cc2)nc1Nc1ccc(Cl)c(NS(=O)(=O)C2CC2)c1 | 7 ± 0.14 | 100
55 | CN1CCN(c2ccc(Nc3nc4c(c(Nc5ccc(Cl)c(NS(=O)(=O)C6CC6)c5)n3)CCC4)cc2)CC1 | 4.6 ± 0.05 | 620
56 | CN1CCN(c2ccc(Nc3nc4c(c(Nc5ccc(Cl)c(NS(=O)(=O)C6CC6)c5)n3)COC4)cc2)CC1 | 5.4 ± 0.2 | 350
57 | CN1CCN(c2ccc(Nc3ncc(F)c(Nc4cccc(NS(=O)(=O)C(C)(C)C)c4)n3)cc2)CC1 | 5.2 ± 0.15 | 400
58 | CN1CCN(c2ccc(Nc3ncc(F)c(Nc4ccc(Cl)c(NS(=O)(=O)C(C)(C)C)c4)n3)cc2)CC1 | 7.2 ± 0.17 | 85
59 | COc1cc(C(=O)NC2CCN(C)CC2)ccc1Nc1ncc(C)c(Nc2cc(OC)c(Cl)c(OC)c2)n1 | 3 ± 0.11 | 2200
60 | COc1cc(Nc2nc(Nc3ccc(C(=O)NC4CCN(C)CC4)cc3)ncc2C)cc(OC)c1Cl | 5.9 ± 0.063 | 2300
61 | Cc1cnc(Nc2ccc(C(=O)NC3CCN(C)CC3)cc2)nc1Nc1cccc(NS(=O)(=O)C(C)(C)C)c1 | 7.6 ± 0.047 | 62
62 | Cc1cnc(Nc2ccc(N3CCN(C)CC3)cc2)nc1Nc1cccc(NS(=O)(=O)N(C)C)c1 | 3.3 ± 0.36 | 1800
63 | CN1CCN(c2ccc(Nc3ncc(F)c(Nc4ccc(C(=O)Nc5ccccc5)cc4)n3)cc2)CC1 | 0.35 ± 0.068 | 17000
64 | CN1CCN(c2ccc(Nc3ncc(F)c(Nc4ccc(C(=O)NC5CC5)cc4)n3)cc2)CC1 | 3.4 ± 0.27 | 1600
65 | Cc1cnc(Nc2ccc(C3CCN(C)CC3)cc2)nc1Nc1cccc(NS(=O)(=O)C(C)(C)C)c1 | 7.6 ± 0.28 | 61
66 | Cc1cnc(Nc2ccc(N3CCN(C)CC3)cc2)nc1Nc1ccc(C(=O)NC2CC2)cc1 | 6.5 ± 0.11 | 150
67 | Cc1cnc(Nc2ccc(CC(=O)N3CCN(C)CC3)cc2)nc1Nc1ccc(C(=O)NC2CC2)cc1 | 6.8 ± 0.15 | 110
68 | CN1CCN(C(=O)Cc2ccc(Nc3ncc(F)c(Nc4ccc(C(=O)NC5CC5)cc4)n3)cc2)CC1 | 4.2 ± 0.2 | 850
69 | Cc1ccc(Nc2nc(Nc3ccc(N4CCN(C)CC4)cc3)ncc2C)cc1NS(=O)(=O)C(C)(C)C | 9.2 ± 0.12 | 18
70 | Cc1cnc(Nc2ccc(N3CCN(C)CC3)cc2)nc1Nc1cccc(NS(=O)(=O)c2ccccc2)c1 | 4.1 ± 0.07 | 900
71 | Cc1cnc(Nc2ccc(N3CCN(C)CC3)cc2)nc1Nc1ccc(Cl)c(NS(=O)(=O)c2ccccc2)c1 | 4.1 ± 0.1 | 960
72 | Cc1cnc(Nc2ccc(N3CCN(C)CC3)cc2)nc1Nc1cccc(NS(=O)(=O)C(C)C)c1 | 7.5 ± 0.14 | 66

— patent US10526291B2, “Potent dual BRD4-kinase inhibitors as cancer therapeutics” (H. Lee Moffitt Cancer Center and Research Institute, Inc., priority 2014, dated 2020)
